{"source": "paper PMC9964746", "about": "“Mechanism of Action and Structure–Activity Relationships of Tetracyclic Small Molecules Acting as Universal Positive Allosteric Modulators of the Cholecystokinin Receptor” (Membranes, 2023)", "key": {"CCK1R [1]": {"molecular_target": "T1, CCK1R (Homo sapiens, UniProt P32238)", "T1 sequence (P32238 1-428)": "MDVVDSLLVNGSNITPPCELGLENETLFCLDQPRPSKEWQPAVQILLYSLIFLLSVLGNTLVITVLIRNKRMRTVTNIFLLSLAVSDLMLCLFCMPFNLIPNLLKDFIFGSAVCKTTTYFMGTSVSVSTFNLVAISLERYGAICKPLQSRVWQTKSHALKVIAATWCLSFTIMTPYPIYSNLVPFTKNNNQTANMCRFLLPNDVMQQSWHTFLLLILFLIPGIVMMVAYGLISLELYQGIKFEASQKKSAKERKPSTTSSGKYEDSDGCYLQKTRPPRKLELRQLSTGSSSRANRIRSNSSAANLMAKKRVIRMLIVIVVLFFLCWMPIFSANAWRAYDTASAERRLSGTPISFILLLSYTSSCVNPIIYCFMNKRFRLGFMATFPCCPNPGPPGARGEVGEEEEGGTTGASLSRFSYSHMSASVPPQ", "experiment": "Receptor internalization assay with alexa488-CCK", "type": "cell-based", "set-up": "expressed in transfected cells; host or cells: HEK-293", "conditions": "hits at 10 µM; cell surface receptor labelled with alexa488-CCK", "protocol": "Receptor internalization assays were performed with the fluorescent alexa488-CCK ligand used to visualize cell surface receptors after treatment and fixation with 2% paraformaldehyde (Electron Microscopy Sciences, Cat# 15710), as we described. Images were acquired with a Zeiss Axiovert 200M inverted epifluorescence microscope."}, "CCK1R [2]": {"molecular_target": "T1, CCK1R", "experiment": "Intracellular calcium assay (Fura-8-AM) in CHO-CCK1R cells", "type": "cell-based", "set-up": "expressed in transfected cells", "conditions": "for Intrinsic agonist activity at CCK1R (intracellular calcium): CHO-CCK1R cells, compound alone, up to 20 µM; for Kb / Logαβ: operational model of allosterism, mean ± SEM; for Kb: CCK-8-stimulated calcium responses in CCK1R-expressing cells; for Logαβ: cooperativity with CCK-8 in CCK1R-expressing cells", "protocol": "(§1) Biological activity was quantified in the CHO cell lines described above using intracellular calcium assays that were performed, as previously described, using Fura-8-AM (AAT Bioquest, Pleasonton, CA, USA). Full agonist dose–response curves were performed along with determination of maximal responses to 0.1 mM ATP, targeting an endogenous receptor present on the parental cells. Concentration–response curves of peak intracellular calcium responses were analyzed and plotted as percentages of maximal responses using non-linear regression analysis in Prism 9.1 (GraphPad)."}, "[3]": {"tested_on": "purinergic receptor (P2YR)", "conditions": "off-target screen ref 6; cited from earlier work"}, "CCK1R [4]": {"molecular_target": "T1, CCK1R", "experiment": "IP-One accumulation TR-FRET assay, PAM format, HEK-293 CCK1R cells", "type": "cell-based", "set-up": "expressed in transfected cells; host or cells: HEK-293", "conditions": "for Emax: HEK293; for EC50: PAM format with EC20 CCK", "procedure,_shortened": "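HEK-293 cells overexpressing CCK1R were plated overnight, then given compounds (top 50 µM, 16-point 2-fold) for 30 min at 37 °C. CCK stimulator with 50 mM LiCl (PAM format) or DMSO (agonist format) followed for 1 h. IP-One was read by TR-FRET; activity score = CCK-normalized Emax × pEC50.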"}, "parental CHO cells": {"tested_on": "parental CHO cells", "experiment": "Intracellular calcium assay in parental CHO cells", "type": "cell-based", "conditions": "compound alone, up to 20 µM", "protocol": "as §1"}, "[5]": {"conditions": "HEK-293 CCK1R cells, PAM format, relative to CCK control, average ± SD"}, "[6]": {"conditions": "HEK-293 CCK1R cells, PAM format"}, "[7]": {"conditions": "HEK-293 CCK1R cells, average ± SD"}}}
{"smiles": "CCCc1nc2oc3c(NCCCN(C)C)ncnc3c2c2c1CCCC2", "note": "[CMP-28]", "values": [{"measurement": "CCK1R internalization", "setting": "CCK1R [1]", "value": "neither “hit” cleared the receptor from the cell surface"}, {"measurement": "Intrinsic agonist activity at CCK1R (intracellular calcium)", "setting": "CCK1R [2]", "value": "no significant endogenous agonist activity at CCK1R"}, {"measurement": "Kb", "setting": "CCK1R [2]", "value": 25.1, "unit": "µM"}, {"measurement": "Logαβ", "setting": "CCK1R [2]; listed as Hit 6", "value": "1.0 ± 0.2"}, {"measurement": "Logαβ", "setting": "CCK1R [2]; listed as hit 6", "value": 1.0}, {"measurement": "Activity at P2YR", "setting": "[3]", "value": "Neither compound exhibited any activity at the P2YR"}, {"measurement": "Emax", "setting": "CCK1R [4]; [5]", "value": "35 ± 13", "unit": "%"}, {"measurement": "CCK1R PAM (IP-One) Score (activity score = normalized Emax × pEC50)", "setting": "CCK1R [4]; [6]", "value": 1.66}, {"measurement": "EC50", "setting": "CCK1R [4]; [7]", "value": "9.5 ± 3.5", "unit": "µM"}, {"measurement": "CCK1R PAM (IP-One) Score (activity score = normalized Emax × pEC50)", "setting": "CCK1R [4]; HEK-293 CCK1R cells, PAM format, listed as hit 6", "value": 1.7}, {"measurement": "Agonist activity at parental CHO cells (intracellular calcium)", "setting": "parental CHO cells", "value": "no significant endogenous agonist activity"}]}
{"smiles": "CCN(CC)CCNc1ncnc2c1sc1nc(N3CCOCC3)c3c(c12)CCCC3", "note": "[CMP-1]", "values": [{"measurement": "CCK1R internalization", "setting": "CCK1R [1]", "value": "neither “hit” cleared the receptor from the cell surface"}, {"measurement": "Intrinsic agonist activity at CCK1R (intracellular calcium)", "setting": "CCK1R [2]", "value": "no significant endogenous agonist activity at CCK1R"}, {"measurement": "Kb", "setting": "CCK1R [2]", "value": 31.6, "unit": "µM"}, {"measurement": "Logαβ", "setting": "CCK1R [2]; listed as Hit 1", "value": "1.5 ± 0.3"}, {"measurement": "Logαβ", "setting": "CCK1R [2]; listed as hit 1", "value": 1.5}, {"measurement": "Activity at P2YR", "setting": "[3]", "value": "Neither compound exhibited any activity at the P2YR"}, {"measurement": "Log(Rmax/R50)", "setting": "CCK1R [4]; CCK1R IP-One PAM assay", "value": 4.7}, {"measurement": "Emax", "setting": "CCK1R [4]; [5]", "value": 60, "unit": "%"}, {"measurement": "CCK1R PAM (IP-One) Score (activity score = normalized Emax × pEC50)", "setting": "CCK1R [4]; [6]", "value": 2.94}, {"measurement": "EC50", "setting": "CCK1R [4]; [7]", "value": "12.8 ± 4.6", "unit": "µM"}, {"measurement": "CCK1R PAM (IP-One) Emax", "setting": "CCK1R [4]; [5]", "value": "63 ± 18", "unit": "%"}, {"measurement": "CCK1R PAM (IP-One) Score (activity score = normalized Emax × pEC50)", "setting": "CCK1R [4]; HEK-293 CCK1R cells, PAM format, listed as hit 1", "value": 2.9}, {"measurement": "AUC relative to AUC of endogenous agonist CCK", "setting": "CCK1R [4]; from activity scores, CCK1R IP-One", "value": "approximately 29%"}, {"measurement": "Agonist activity at parental CHO cells (intracellular calcium)", "setting": "parental CHO cells", "value": "no significant endogenous agonist activity"}]}
